According to US7071197B2, “N,N-disubstituted diazocycloalkanes” (Recordati S.A., priority 2002, dated 2006):
Like-named read-outs stand apart in the source and are kept apart here.

Assays:
[1] = molecular target: T1, human cloned 5-HT1A receptors (Homo sapiens, UniProt P08908); test: [35S]GTPγS binding, membranes of HeLa cells transfected with human cloned 5-HT1A receptors; type: biochemical; conditions: 5-HT maximal stimulation taken as 100%
T1 construct: expressed in transfected cells
T1 sequence (P08908 1-422): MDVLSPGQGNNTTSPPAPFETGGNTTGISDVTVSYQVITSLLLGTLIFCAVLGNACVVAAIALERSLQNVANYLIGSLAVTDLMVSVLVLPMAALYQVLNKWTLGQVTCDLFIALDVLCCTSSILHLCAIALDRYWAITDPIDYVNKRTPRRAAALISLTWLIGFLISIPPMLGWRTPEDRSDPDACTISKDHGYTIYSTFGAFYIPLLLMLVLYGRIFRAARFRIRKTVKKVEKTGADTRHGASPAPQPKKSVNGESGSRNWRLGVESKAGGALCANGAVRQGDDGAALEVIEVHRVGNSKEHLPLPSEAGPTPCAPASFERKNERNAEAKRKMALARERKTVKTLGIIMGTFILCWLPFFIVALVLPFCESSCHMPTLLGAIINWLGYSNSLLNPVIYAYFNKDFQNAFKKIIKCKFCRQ
Experimental: (§1) A genomic clone coding for the human 5HT1A-serotonergic receptor was stably transfected in a human cell line (HeLa). HeLa cells were grown as monolayers in Dulbecco's modified Eagle medium (DMEM), containing 10% fetal bovine serum, gentamycin (0.1 mg/ml) and 5% carbon dioxide, at 37° C. The cells were detached from the growth flask at 95% confluence by a cell scraper and were lysed in cold 5 mM Tris and 5 mM EDTA buffer (pH 7.4). The homogenates were centrifuged at 40000×g×20 minutes and the pellets were resuspended in a small volume of cold 5 mM Tris and 5 mM EDTA buffer (pH 7.4) and immediately frozen and stored at −70° C. until use.
[^35S]GTPγS binding: on the experimental day, cell membranes from HeLa cells transfected with human cloned 5-HT1A receptors were resuspended in buffer pH 7.4 containing 20 mM HEPES, 3 mM MgCl2 and 120 mM NaCl (Stanton, J. A.; Beer, M. S. Eur. J. Pharmacol. 320, 267–275, 1997). The membranes were incubated with 10 μM GDP and decreasing concentrations of test drugs (from 100 μM to 0.1 nM) or decreasing concentrations of 5-HT (from 100 μM to 0.1 nM, reference curve) for 20 min at 30° C. in a final volume of about 0.25 ml. [^35S]GTPγS ([…] in 10 μl) was added to samples and incubated for a further 30 min at 30° C. Non-specific binding was determined in the presence of 10 μM GTPγS. The incubation was stopped by addition of ice-cold HEPES buffer and rapid filtration on Unifilter GF/C filters, using a Filtermate cell harvester (Packard). The filters were washed four times with total 1.2 ml of same buffer. Radioactivity was counted by liquid scintillation spectrometry with efficiency >90% (TopCount Packard). Stimulation of [^35S]GTPγS binding induced by the compounds tested was espressed as % increase in binding above basal value, being the maximal stimulation observed with 5-HT taken as 100%. The concentration-response curve of the agonistic activity was analyzed by non linear fitting program (De Lean et al., Am. J. Physiol. 235, E97-E102, 1978).
A stimulation of [^35S]GTPγS binding represented the functional correlate of the binding of an agonist compound at the 5-HT1A receptors. Stimulation induced by the endogenous ligand 5-HT was considered the maximal stimulation attainable.

[2] = molecular target: T2, human 5HT1A-serotonergic receptor (Homo sapiens, UniProt P08908); test: [3H]8-OH-DPAT radioligand binding to human recombinant 5-HT1A receptors; conditions: for Ki: [3H]8-OH-DPAT, HeLa cell membranes, read-out: Affinity: Ki
T2 construct: expressed in transfected cells
T2 sequence (P08908 1-422): T1 sequence (P08908 1-422)
Experimental: as §1
[^3H]8-OH-DPAT binding: on the day of experiment, the cell membranes were resuspended in incubation buffer: 50 mM Tris HCl (pH 7.4), 2.5 mM MgCl2, […] (Fargin et al., Nature 335, 358–360, 1988). The membranes were incubated in a final volume of 1 ml for 30 minutes at 30° C. with 1 nM [^3H]8-OH-DPAT, in the absence or presence of the test compounds. Non-specific binding was determined in the presence of 10 μM 5-HT. Incubation was stopped by addition of cold Tris-HCl buffer and rapid filtration through a 0.2%-polyethyleneimine-pretreated Whatman-GF/B or Schleicher-&-Schuell-GF52 filter.
The affinity of the tested compounds was evaluated as inhibition of specific binding of the radioligand to 5-HT1A receptors (IC50) by using the non-linear curve-fitting program (De Lean et al., Am. J. Physiol. 235, E97-E102, 1978). The IC50 value was converted to an affinity constant (Ki) by the equation of Cheng et al., Biochem. Pharmacol. 22, 3099–3108 (1973).

[3] = tested on: rhythmic bladder-voiding contractions in anaesthetised rats; test: Rhythmic bladder-voiding contractions induced by bladder filling in anaesthetised rats; type: in vivo, rat; conditions: for ED10 min (extrapolated dose inducing 10 minutes of disappearance of the contractions) / ED50: intravenous administration, anaesthetised rats; for ED50: Rattus norvegicus
Experimental: Female Sprague-Dawley rats weighing 225–275 g (Crl: CD® (SD) IGS BR, Charles River Italia) were used. The animals were housed with free access to food and water and maintained on a forced 12-hour alternating light-dark cycle at 22–24° C. for at least one week, except during the experiment. The activity on rhythmic bladder voiding contractions was evaluated according to the method of Dray (Dray J., Pharmacol. Methods, 13:157, 1985), with some modifications as in Guarneri (Guarneri, Pharmacol. Res. 27:173, 1993). Briefly, the rats were anaesthetised by subcutaneous injection of 1.25 g/kg (5 ml/kg) urethane, after which the urinary bladder was catheterised via the urethra using PE 50 polyethylene tubing filled with physiological saline. The catheter was tied in place with a ligature around the external urethral orifice and was connected to conventional pressure transducers (Statham P23 ID/P23 XL). […] The bladder was then filled via the recording catheter by incremental volumes of warm (37° C.) saline until reflex bladder-voiding contractions occurred (usually 0.81.5 ml). For intravenous injection of bioactive compounds, PE 50 polyethylene tubing filled with physiological saline was inserted into the jugular vein.
From the cystometrogram, the number of contractions recorded 15 minutes before (basal values) and after treatment, as well as the mean amplitude of these contractions (mean height of the peaks in mmHg), was evaluated.
Since most compounds produced an effect that was relatively rapid in onset and led to a complete cessation of bladder contractions, bioactivity was conveniently estimated by measuring the duration of bladder quiescence (i.e., the length of the time during which no contractions occurred). The number of tested animals showing a reduction in the number of contractions higher than 30% of that observed in the basal period was recorded too.
The extrapolated doses which induced a reduction in the number of contractions greater than 30% in 50% of the treated rats (ED50) were evaluated by the method of Bliss (Bliss C. I., Quart J. Pharm. Pharmacol. 11, 192–216, 1938).

Compound	Functional effect ([35S]GTPγS binding) [1]	Ki [2] [nM]	also measured
O[C@@H](C1CCCCC1)[C@H](CCN1CCN(c2ccccc2OCC(F)(F)F)CC1)c1ccccc1F (racemic) [Ex. 3, 1-[(RS,SR)-4-cyclohexyl-4-hydroxy-3-(2-fluorophenyl)-butyl]-4-[2-(2,2,2-trifluoroethoxy)-phenyl]-piperazine]	Neutral antagonist	0.29	–
COc1ccccc1N1CCN(CC[C@@H](c2ccccc2F)[C@H](O)C2CCCCC2)CC1 [Ex. 1X, 1-[(3S,4R)-4-cyclohexyl-4-hydroxy-3-(2-fluorophenyl)-butyl]-4-(2-methoxyphenyl)-piperazine]	Partial agonist	0.5	–
COc1ccccc1N1CCN(CCC(c2ccccc2F)C(O)C2CCCCC2)CC1 (stereo not shown) [Ex. 2, 1-[(RR-SS)-4-cyclohexyl-4-hydroxy-3-(2-fluorophenyl)-butyl]-4-(2-methoxyphenyl)-piperazine]	Neutral antagonist	0.29	potency at the 5-HT1A receptor compared with Ex. 5 ([2]; statistical signficance p<0.01): more potent than Ex. 5
COc1ccccc1N1CCN(CC[C@@H](c2ccccc2F)[C@@H](O)C2CCCCC2)CC1 [Ex. 2Y, 1-[(3S,4S)-4-cyclohexyl-4-hydroxy-3-(2-fluorophenyl)-butyl]-4-(2-methoxyphenyl)-piperazine]	Partial agonist	0.98	–
OC(C1CCCCC1)C(CCN1CCN(c2ccccc2OCC(F)(F)F)CC1)c1ccccc1F (stereo not drawn) [Ex. 4, 1-[(RR,SS)-4-cyclohexyl-4-hydroxy-3-(2-fluorophenyl)-butyl]-4-[2-(2,2,2-trifluoroethoxy)-phenyl]-piperazine]	Neutral antagonist	0.68	–
Cc1c(-c2ccccc2)oc2c(C(=O)OCCN3CCCCC3)cccc2c1=O [Flavoxate]	–	–	ED10 min (extrapolated dose inducing 10 minutes of disappearance of the contractions) [3]: >10 mg/kg
CCN(CC)CC#CCOC(=O)C(O)(c1ccccc1)C1CCCCC1 (stereo not shown) [Oxybutynin]	–	–	ED50 ([3]; n.a. = not active, no significant reduction of the height of the peaks, read-out: ED50 (amplitude) (extrapolated dose inducing a 30% reduction of amplitude of the contractions in 50% of treated rats)): 0.24 mg/kg; ED50 ([3]; read-out: ED50 (frequency) (extrapolated dose inducing a reduction of the number of contractions > 30% in 50% of treated rats)): > 10 mg/kg; blockade of bladder contractions ([3]; at 240 μg/kg): did not cause a blockade of bladder contractions; ED10 min (extrapolated dose inducing 10 minutes of disappearance of the contractions) [3]: 7.77 mg/kg
